What was measured:
Type in all cases: cell-based
[1] = tested on: rat hepatoma (H4IIE) cell line; test: Lipid peroxidation measured as 8-isoprostane ELISA; set-up: key to Membrane Lipid Peroxidation: 0=No Change; 1=Modest increase with maximum values<15 pg/mL; 2=Concentration related increase with maximum values>15 pg/mL; 3=Concentration related increase with a maximum value>30 pg/mL; settings: H4IIE cells; for Membrane Lipid Peroxidation: 8-isoprostane score
Experimental: (§1) Rat hepatoma derived H4IIE cells were used as the test system because the cell have a rapid doubling time in culture (i.e. 22 hours). The culture medium used for these cells was Eagles Minimum Essential Medium (MEM) with 10% bovine serum and 10% calf serum (Invitrogen). H4IIE cells were seeded into 96-well plates and allowed to equilibrate for approximately 48 hr before drug assay to allow cells to move into a stable growth phase prior to treatment. Following the equilibration period the cells were exposed to J-147 at concentrations of 1–300 μM. Three to 7 replicates were done for each assay to construct concentration-response curves. Solubility was determined by Nephalometry techniques immediately after dosing and prior to harvesting the cells at 6 or 24 hr. Following the incubation period, cells or their supernatant (culture medium) were analyzed for changes in cell proliferation (cell mass), membrane leakage, mitochondrial function, oxidative stress, and apoptosis. The resultant exposure concentration response curves were graphed and analyzed for determining the concentration that produced a half maximal response or TC50 [28, 30].
8-ISO levels were determined using an ELISA (Cayman Chemical Inc). 8-ISO is a member of a family of eicosanoids produced nonenzymatically by random oxidation of tissue phospholipids by oxygen radicals. Therefore, an increase in 8-ISO is an indirect measure of increased lipid peroxidation. At the end of the exposure period, plates were either analyzed immediately or stored at −80°C until needed for analysis. Color development, which is […] proportional to the amount of 8-ISO present in the sample, was read on a Packard Fusion or equivalent plate reader at 415 nm. Background absorbance produced from Ellman’s reagent is subtracted from all wells. Non-specific binding is subtracted from the maximum binding wells to give a corrected maximum binding expressed as Bo. The percent of bound (B) relative to maximum binding capacity (Bo) for all unknown samples and for standards was determined an expressed as (%B/Bo). The %B/Bo for standards was plotted against the log of 8-ISO added to yield the final standard curve. This curve was used to convert %B/Bo to pg 8-ISO/mL of sample.

[2] = tested on: rat hepatoma (H4IIE) cell line; test: CeeTox cellular ATP content, luciferin/luciferase; settings: H4IIE cells, 24-hr exposure
Experimental: (§2) All Ceetox assays utilizing the rat hepatoma (H4IIE) cell line as the test system were conducted by CeeTox Inc Kalamazoo, MI. Ceetox assays are described in detail by McKim and Lapchak and according to a Standard Operating Procedure (SOP).
as §1
Adenosine triphosphate (ATP) content was determined using a modification of a standard luciferin/luciferase luminescence assay based on a reaction between ATP + D-luciferin + oxygen catalyzed by luciferase to yield Oxyluciferin + AMP + PPi + CO2 + light. The emitted light is proportional to the amount of ATP present. […] Plates were analyzed immediately or stored at −20°C until needed. […] ATP was quantified by adding ATP substrate solution and then reading luminescence on a Packard Fusion Luminescence reader. […] Background corrected luminescence was used to determine percent change relative to controls by dividing treated values by control values and multiplying by 100.

[3] = tested on: rat hepatoma (H4IIE) cell line; test: CeeTox MTT reduction assay; settings: H4IIE cells, 24hour
Experimental: as §2, §1
(§3) The presence of α-Glutathione S-transferase (α-GST), an enzyme leakage marker, was measured in the culture medium using an ELISA assay purchased from Argutus Medical. […] Absorbance values were measured with a Packard SpectraCount™ reader at 450 nm and reference absorbance at 650 nm. Leakage of α-GST from the cell into the culture medium was determined by collecting the culture medium at the end of the exposure period. Thus, the values measured represent total enzyme leakage lost over the exposure period. […] Sample absorbance was read at 570 nm and reference absorbance at 650 nm with a Packard Fusion reader. […]

[4] = tested on: rat hepatoma (H4IIE) cell line; test: CeeTox membrane toxicity, α-GST leakage ELISA; settings: H4IIE cells, 24hour; membrane toxicity measured using GST leakage
Experimental: as §2, §1, §3

[5] = tested on: rat hepatoma (H4IIE) cell line; test: CeeTox cell mass (cell number), propidium iodide fluorescence; settings: H4IIE cells; for Cell Number TC50: 24hour analysis endpoint, cell number (or mass)
Experimental: as §2, §1
Cell mass in each well was measured with a modified propidium iodide (PI), a specific nucleic acid binding dye that fluoresces when intercalated within the nucleic acids. The 15nm shift enhances PI fluorescence approximately 20 times while the excitation maxima are shifted 30–40nm. Triton-X-100 was used to permeabilize the H4IIE cells thereby allowing the PI access to intracellular RNA and DNA. Fluorescence was measured using a Packard Fusion plate reader at 540 nm excitation and 610 nm emission. Data is collected as relative fluorescent units (RFU) and expressed as percent change relative to control;

With CC[C@@]1(O)C(=O)OCc2c1cc1n(c2=O)Cc2cc3ccccc3nc2-1 [Camptothecin, camptothecin] the “Membrane Lipid Peroxidation” value [1] was 1 (1=Modest increase with maximum values<15 pg/mL), the “ATP TC50” value [2] was 0.3 µM and the “MTT TC50” value [3] was 0.5 µM. For the same compound, the “Mem Tox TC50” value [4] was over 300 µM and the “Cell Number TC50” value [5] was 0.6 µM.

In the case of COc1cccc(/C=N/N(C(=O)C(F)(F)F)c2ccc(C)cc2C)c1 [J-147, (E)-N-(2,4-Dimethylphenyl)-2,2,2-trifluoro-N′-(3-methoxybenzylidene) acetohydrazide], the “Effect on 8-isoprostane” value [1] is reported as “did not have any effect”, the “Membrane Lipid Peroxidation” value [1] is reported as 0 and the “ATP TC50” value [2] is reported as 210 µM. The “MTT TC50” value [3] was 228 µM, the “Mem Tox TC50” value [4] was over 300 µM and the “Cell Number TC50” value [5] was 293 µM. The “Concentration range with decrease in cell proliferation” value ([5]; prior to effects on other markers, in the absence of cell death) was 20 to 100 µM.

With C=C(C)[C@H]1Cc2c(ccc3c2O[C@@H]2COc4cc(OC)c(OC)cc4[C@@H]2C3=O)O1 [Rotenone, rotenone] the “Membrane Lipid Peroxidation” value [1] was 0, the “ATP TC50” value [2] was 0.05 µM and the “MTT TC50” value [3] was 0.07 µM. For the same compound, the “Mem Tox TC50” value [4] was 0.93 µM and the “Cell Number TC50” value [5] was 0.04 µM.

From publication PMC4215638, “J-147 a Novel Hydrazide Lead Compound to Treat Neurodegeneration: CeeTox™ Safety and Genotoxicity Analysis” (Journal of neurology & neurophysiology, 2013)
